pKi: −log10 of the molar value. Where a name gives a salt, the structure may show the parent alone.
How the values were obtained:
[1] = target: T1, human cloned 5-HT6 receptors (Homo sapiens, UniProt P50406); assay: 5-HT6 binding affinity, [3H]-LSD displacement on membranes of Hela cells expressing human cloned 5-HT6 receptors; settings: [3H]-LSD 3.0 nM, Hela cell membranes, 120 min at room temperature
T1 construct: expressed in transfected cells; host or cells: HeLa cells
Method: The affinity of test compounds for the serotonin 5-HT6 receptor is evaluated in the following manner. Cultured Hela cells expressing human cloned 5-HT6 receptors are harvested and centrifuged at low speed (1,000×g) for 10.0 min to remove the culture media. The harvested cells are suspended in half volume of fresh physiological phosphate buffered saline solution and recentrifuged at the same speed. This operation is repeated. The collected cells are then homogenized in ten volumes of 50 mM Tris.HCl (pH 7.4) and 0.5 mM EDTA. The homogenate is centrifuged at 40,000×g for 30.0 min and the precipitate is collected. The obtained pellet is resuspended in 10 volumes of Tris.HCl buffer and recentrifuged at the same speed. The final pellet is suspended in a small volume of Tris.HCl buffer and the tissue protein content is determined in aliquots of 10-25 μl volumes. Bovine Serum Albumin is used as the standard in the protein determination according to the method described in Lowry et al., J. Biol. Chem., 193:265 (1951). The volume of the suspended cell membranes is adjusted to give a tissue protein concentration of 1.0 mg/ml of suspension. The prepared membrane suspension (10 times concentrated) is aliquoted in 1.0 ml volumes and stored at −70° C. until used in subsequent binding experiments.
Binding experiments are performed in a 96 well microtiter plate format, in a total volume of 200 μl. […] The test compounds are added in 20.0 μl volume.
The reaction is allowed to proceed in the dark for 120 min at room temperature, at which time, the bound ligand-receptor complex is filtered off on a 96 well unifilter with a Packard Filtermate® 196 Harvester. The bound complex caught on the filter disk is allowed to air dry and the radioactivity is measured in a Packard TopCount® equipped with six photomultiplier detectors, after the addition of 40.0 μl Microscint®-20 scintillant to each shallow well. The unifilter plate is heat-sealed and counted in a PackardTopCount® with a tritium efficiency of 31.0%.
Binding in the presence of varying concentrations of test compound is expressed as a percentage of specific binding in the absence of test compound. The results are plotted as log % bound versus log concentration of test compound. […] A linear regression line of data points is plotted, from which the IC50 value is determined and the Ki value is determined based upon the following equation: […]
where L is the concentration of the radioactive ligand used and KD is the dissociation constant of the ligand for the receptor, both expressed in nM.

T1 sequence (P50406 whole entry): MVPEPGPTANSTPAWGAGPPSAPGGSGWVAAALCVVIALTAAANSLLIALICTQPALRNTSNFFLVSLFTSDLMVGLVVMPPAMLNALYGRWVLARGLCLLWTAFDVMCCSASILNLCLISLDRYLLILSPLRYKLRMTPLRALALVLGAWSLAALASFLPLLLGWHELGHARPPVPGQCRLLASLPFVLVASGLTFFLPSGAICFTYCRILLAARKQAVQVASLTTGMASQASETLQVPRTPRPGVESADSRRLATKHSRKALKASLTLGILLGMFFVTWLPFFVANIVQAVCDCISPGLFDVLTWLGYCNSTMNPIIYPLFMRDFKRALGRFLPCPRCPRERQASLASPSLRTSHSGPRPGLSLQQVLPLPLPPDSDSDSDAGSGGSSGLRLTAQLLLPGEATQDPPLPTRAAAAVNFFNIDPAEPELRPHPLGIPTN

Row | Structure (SMILES) | pKi [1] | melting point
1 | O=S(=O)(c1ccccc1)n1ncc2c(OC3CCNC3)cccc21 (stereo not shown) [Example 14, 1-(Phenylsulfonyl)-4-(pyrrolidin-3-yloxy)-1H-indazole, trifluoroacetic acid salt] | 7.72 | 
2 | O=S(=O)(c1cccc2ccccc12)n1ccc2c(OC3CCNC3)cccc21 (stereo not shown) [Example 6, 1-(1-naphthylsulfonyl)-4-(3-pyrrolidinyloxy)-1H-indole] | 7.89 | 
3 | Nc1ccc(S(=O)(=O)n2ccc3c(OC4CCNC4)cccc32)cc1 (stereo not shown) [Example 5, 4-{[4-(3-pyrrolidinyloxy)-1H-indol-1-yl]sulfonyl}aniline] | 8.30 | 
4 | Nc1ccc(S(=O)(=O)n2ccc3c(OC4CCNCC4)cccc32)cc1 (as salt: hydrochloride) [Example 8, 4-{[4-(piperidin-4-yloxy)-1H-indol-1-yl]sulfonyl}aniline] |  | 117 to 119 °C
5 | O=S(=O)(c1ccccc1Cl)n1ncc2c(OC3CCNC3)cccc21 (stereo not shown) (as salt: trifluoroacetic acid salt) [Example 16, 1-[(2-Chlorophenyl)sulfonyl]-4-(3-pyrrolidinyloxy)-1H-indazole] |  | 161 to 163 °C
6 | CC(=O)Nc1ccc(S(=O)(=O)n2ncc3c(OC4CCNC4)cccc32)cc1 (stereo not shown) [Example 21] | 6.91 | 
7 | O=S(=O)(c1ccc(Cl)s1)n1ncc2c(OC3CCNC3)cccc21 (stereo not shown) (as salt: trifluoroacetic acid salt) [Example 19, 1-[(5-Chlorothien-2-yl)sulfonyl]-4-(3-pyrrolidinyloxy)-1H-indazole] |  | 102 to 103 °C
8 | COc1ccc(S(=O)(=O)n2ncc3c(OC4CCNC4)cccc32)cc1OC (stereo not shown) [Example 18] | 7.12 | 
9 | O=S(=O)(c1cccc2ccccc12)n1ncc2c(OC3CCNC3)cccc21 (stereo not shown) [Example 15, 1-(1-naphthylsulfonyl)-4-(3-pyrrolidinyloxy)-1H-indazole] | 8.52 | 
10 | O=S(=O)(c1ccccc1F)n1ncc2c(OC3CCNC3)cccc21 (stereo not shown) (as salt: trifluoroacetic acid salt) [Example 17, 1-[(2-fluorophenyl)sulfonyl]-4-(3-pyrrolidinyloxy)-1H-indazole] |  | 162 to 163 °C
11 | O=S(=O)(c1cccs1)n1ccc2c(OC3CCNC3)cccc21 (stereo not shown) [Example 4, 4-(3-pyrrolidinyloxy)1-(thien-2-ylsulfonyl)-1H-indole] | 7.60 | 
12 | Nc1ccc(S(=O)(=O)n2ccc3c(OC4CCNCC4)cccc32)cc1 [Example 8, 4-{[4-(piperidin-4-yloxy)-1H-indol-1-yl]sulfonyl}aniline] | 8.52 | 
13 | CC(=O)Nc1ccc(S(=O)(=O)n2ncc3c(OC4CCNC4)cccc32)cc1Cl (stereo not shown) [Example 20, N-(2-Chloro-4-{[4-(3-pyrrolidinyloxy)-1H-indazol-1-yl]sulfonyl}phenyl)acetamide] | 7.92 | 
14 | O=S(=O)(c1ccccc1F)n1ncc2c(OC3CCNC3)cccc21 (stereo not shown) [Example 17, 1-[(2-fluorophenyl)sulfonyl]-4-(3-pyrrolidinyloxy)-1H-indazole] | 7.60 | 
15 | Nc1ccc(S(=O)(=O)n2ccc3c(OC4CCCNC4)cccc32)cc1 (stereo not shown) [Example 9, 4-{[4-(piperidin-3-yloxy)-1H-indol-1-yl]sulfonyl}aniline] | 7.96 | 
16 | O=S(=O)(c1cccc2ccccc12)n1ccc2c(OC3CCNC3)cccc21 (stereo not shown) (as salt: hydrochloride) [Example 6, 1-(1-naphthylsulfonyl)-4-(3-pyrrolidinyloxy)-1H-indole] |  | 179 °C (dec.)
17 | O=S(=O)(c1cccc2cccnc12)n1ncc2c(OC3CCNC3)cccc21 (stereo not shown) [Example 22, 8-{[4-(3-pyrrolidinyloxy)-1H-indazol-1-yl]sulfonyl}quinoline] | 7.66 | 
18 | Nc1ccc(S(=O)(=O)n2ccc3c(OC4CCCNC4)cccc32)cc1 (stereo not shown) (as salt: hydrochloride) [Example 9, 4-{[4-(piperidin-3-yloxy)-1H-indol-1-yl]sulfonyl}aniline] |  | 160 °C (dec.)
19 | O=S(=O)(c1ccccc1)n1ccc2c(OC3CCNC3)cccc21 (stereo not shown) [Example 3, 1-(Phenylsulfonyl)-4-(3-pyrrolidinyloxy)-1H-indole Hydrochloride] | 8.10 | 
20 | O=S(=O)(c1cccc2cccnc12)n1ncc2c(OC3CCNC3)cccc21 (stereo not shown) (as salt: trifluoroacetic acid salt) [Example 22, 8-{[4-(3-pyrrolidinyloxy)-1H-indazol-1-yl]sulfonyl}quinoline] |  | 79 °C
21 | O=S(=O)(c1ccc(Cl)s1)n1ncc2c(OC3CCNC3)cccc21 (stereo not shown) [Example 19, 1-[(5-Chlorothien-2-yl)sulfonyl]-4-(3-pyrrolidinyloxy)-1H-indazole] | 8.05 | 
22 | O=S(=O)(c1cccc2ccccc12)n1ncc2c(OC3CCNC3)cccc21 (stereo not shown) (as salt: trifluoroacetic acid salt) [Example 15, 1-(1-naphthylsulfonyl)-4-(3-pyrrolidinyloxy)-1H-indazole] |  | 200 to 201 °C
23 | CC(=O)Nc1ccc(S(=O)(=O)n2ncc3c(OC4CCNC4)cccc32)cc1Cl (stereo not shown) (as salt: trifluoroacetic acid salt) [Example 20, N-(2-Chloro-4-{[4-(3-pyrrolidinyloxy)-1H-indazol-1-yl]sulfonyl}phenyl)acetamide] |  | 68 to 72 °C
24 | Cc1nn(C)c(Cl)c1S(=O)(=O)n1ccc2c(OC3CCNC3)cccc21 (stereo not shown) (as salt: hydrochloride) [Example 7, 1-[(5-Chloro-1,3-dimethyl-1H-pyrazol-4-yl)sulfonyl]-4-(3-pyrrolidinyloxy)-1H-indole] |  | 100 °C (dec.)
25 | O=S(=O)(c1ccccc1Cl)n1ncc2c(OC3CCNC3)cccc21 (stereo not shown) [Example 16, 1-[(2-Chlorophenyl)sulfonyl]-4-(3-pyrrolidinyloxy)-1H-indazole] | 7.72 | 
